Results on 36 molecules are retold here after ChEMBL document CHEMBL1201862, “PubChem BioAssay data set” (2004).

Assay [1] concerns the target T1, Corticotropin-releasing factor receptor 2/Corticotropin-releasing factor-binding protein (Homo sapiens, UniProt P24387+Q13324).
T1 sequence (Q13324 whole entry): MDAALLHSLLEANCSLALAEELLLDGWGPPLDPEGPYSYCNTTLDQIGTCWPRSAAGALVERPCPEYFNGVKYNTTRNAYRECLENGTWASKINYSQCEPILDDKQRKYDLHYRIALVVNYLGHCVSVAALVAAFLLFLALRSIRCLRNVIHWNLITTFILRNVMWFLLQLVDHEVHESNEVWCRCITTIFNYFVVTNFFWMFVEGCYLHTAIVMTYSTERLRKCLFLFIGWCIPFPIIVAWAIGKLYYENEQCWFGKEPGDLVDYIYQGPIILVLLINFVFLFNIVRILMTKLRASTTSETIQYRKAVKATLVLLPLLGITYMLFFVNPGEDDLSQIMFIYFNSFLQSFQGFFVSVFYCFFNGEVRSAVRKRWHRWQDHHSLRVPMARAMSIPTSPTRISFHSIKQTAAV
T1 sequence (P24387 whole entry): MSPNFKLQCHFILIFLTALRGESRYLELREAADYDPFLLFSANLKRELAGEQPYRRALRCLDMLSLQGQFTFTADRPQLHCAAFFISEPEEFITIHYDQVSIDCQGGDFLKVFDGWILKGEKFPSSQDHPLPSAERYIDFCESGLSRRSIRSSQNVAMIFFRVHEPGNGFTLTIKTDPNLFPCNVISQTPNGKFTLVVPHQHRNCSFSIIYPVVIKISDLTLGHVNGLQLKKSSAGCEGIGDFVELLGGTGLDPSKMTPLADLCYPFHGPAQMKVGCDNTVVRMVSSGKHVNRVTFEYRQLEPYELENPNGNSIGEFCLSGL
Nature of the assay: activators of CRF receptor 2 with binding protein – uHTS hits, confirmation (AID 602473). It is filed as functional. The following applies: read-out: EC50_Mean.

Assay [2] has as its target T2, Carboxy-terminal domain RNA polymerase II polypeptide A small phosphatase 1 (Homo sapiens, UniProt Q9GZU7).
T2 sequence (Q9GZU7 whole entry): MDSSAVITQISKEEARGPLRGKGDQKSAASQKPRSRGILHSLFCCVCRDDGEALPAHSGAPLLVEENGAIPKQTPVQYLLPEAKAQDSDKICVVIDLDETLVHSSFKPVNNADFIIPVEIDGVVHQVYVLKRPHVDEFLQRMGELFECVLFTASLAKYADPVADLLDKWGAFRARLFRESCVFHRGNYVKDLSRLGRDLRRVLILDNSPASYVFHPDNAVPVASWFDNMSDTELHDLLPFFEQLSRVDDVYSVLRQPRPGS
Nature of the assay: CTDSP1 inhibitors, concentration-response, biochemical, absorbance readout, ultra-high-throughput screen actives (AID 540297). It is filed as functional.

The target in assay [3] is Luciferin 4-monooxygenase (Photinus pyralis, UniProt P08659). In words: inhibition of purified Photinus pyralis luciferase – biochemical, luminescence, dose response (AID 1891).
Chain of Luciferin 4-monooxygenase (P08659 whole entry): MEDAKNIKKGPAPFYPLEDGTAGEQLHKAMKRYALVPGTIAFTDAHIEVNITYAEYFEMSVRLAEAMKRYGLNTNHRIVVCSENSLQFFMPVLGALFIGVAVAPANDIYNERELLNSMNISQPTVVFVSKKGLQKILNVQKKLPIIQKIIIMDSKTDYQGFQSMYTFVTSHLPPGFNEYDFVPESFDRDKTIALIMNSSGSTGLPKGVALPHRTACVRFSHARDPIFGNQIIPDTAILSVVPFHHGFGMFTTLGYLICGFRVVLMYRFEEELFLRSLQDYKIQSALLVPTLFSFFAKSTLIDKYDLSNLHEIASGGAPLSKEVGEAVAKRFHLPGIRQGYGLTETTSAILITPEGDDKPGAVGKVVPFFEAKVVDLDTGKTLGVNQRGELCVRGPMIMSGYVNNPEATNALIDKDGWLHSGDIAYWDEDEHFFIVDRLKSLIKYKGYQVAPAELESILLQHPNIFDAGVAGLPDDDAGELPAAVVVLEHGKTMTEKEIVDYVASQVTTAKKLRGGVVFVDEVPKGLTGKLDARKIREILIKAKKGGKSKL
A short description of assay [4]: Luminescence Cell-Based Dose Confirmation HTS to Identify Inhibitors of Platelet Dense Granule Release. [Related pubchem assays: 1663 (Primary HTS), 1678 (Summary of Project)]. The format is functional.
Assay [5] can be described thus: Trypanosoma cruzi growth suppression in host cells – NIH3T3 host cells, beta-gal luminescence, confirmation (AID 2044).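 Further: intracellular parasites grown in NIH/3T3 mouse fibroblasts as host cells; luminescent beta-galactosidase reporter signal from transgenic T. cruzi replicating inside host cells; inhibitors lower the luminescence signal.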 The format is functional, cell-based.
Assay [6] is described as follows: NIH3T3 cell viability loss – ATP luminescence, mouse fibroblasts, counter-screen, dose response (AID 2010).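 Further: cells exposed to compound for about 90 hours before reading.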 It is filed as functional, cell-based. (In general: A counterscreen serves to expose hits that act by an unwanted route or on another target.)
Assay [7] deals with Large T antigen (Simian virus 40, UniProt P03070). The format is functional, Betapolyomavirus macacae.
Chain of Large T antigen (P03070 whole entry): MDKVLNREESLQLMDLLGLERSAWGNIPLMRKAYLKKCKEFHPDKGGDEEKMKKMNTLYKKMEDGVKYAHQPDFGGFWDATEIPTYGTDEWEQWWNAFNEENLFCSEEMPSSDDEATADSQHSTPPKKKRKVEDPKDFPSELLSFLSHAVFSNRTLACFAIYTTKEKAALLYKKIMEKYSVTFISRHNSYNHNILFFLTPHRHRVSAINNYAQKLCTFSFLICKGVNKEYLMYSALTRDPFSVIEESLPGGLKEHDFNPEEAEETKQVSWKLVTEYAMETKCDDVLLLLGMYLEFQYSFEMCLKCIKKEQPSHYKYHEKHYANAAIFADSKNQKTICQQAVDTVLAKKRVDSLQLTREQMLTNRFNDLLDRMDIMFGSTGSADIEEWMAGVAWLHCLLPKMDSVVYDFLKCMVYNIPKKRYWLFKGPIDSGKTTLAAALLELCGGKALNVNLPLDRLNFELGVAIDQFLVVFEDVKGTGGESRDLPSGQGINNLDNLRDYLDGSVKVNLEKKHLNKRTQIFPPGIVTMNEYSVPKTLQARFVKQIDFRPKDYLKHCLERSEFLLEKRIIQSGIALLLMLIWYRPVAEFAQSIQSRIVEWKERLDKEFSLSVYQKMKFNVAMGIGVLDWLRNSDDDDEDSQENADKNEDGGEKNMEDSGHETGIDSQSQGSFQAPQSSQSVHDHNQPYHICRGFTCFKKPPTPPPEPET
In assay [8] the target is T3, RNA-binding protein pos-1 (Caenorhabditis elegans, UniProt G5EF15).
T3 sequence (G5EF15 whole entry): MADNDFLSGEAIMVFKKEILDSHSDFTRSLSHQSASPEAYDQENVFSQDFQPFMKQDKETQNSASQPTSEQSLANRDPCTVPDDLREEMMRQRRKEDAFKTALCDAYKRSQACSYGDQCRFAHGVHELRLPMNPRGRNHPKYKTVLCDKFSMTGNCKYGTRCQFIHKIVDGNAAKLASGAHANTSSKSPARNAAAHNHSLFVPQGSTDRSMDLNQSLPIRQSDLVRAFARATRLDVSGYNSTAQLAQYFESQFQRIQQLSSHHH
Nature of the assay: disruptors of C. elegans POS-1 RNA interaction – biochemical, fluorescence polarization, dose response (AID 1964).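 Further: purified POS-1 fused to maltose binding protein made in E. coli; potency of compounds blocking POS-1 binding to fluorescent RNA.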 On the technique in general: In fluorescence polarisation assays a small probe gives low polarisation when free and higher when bound to something large.

In assay [9] the target is T4, Zinc finger protein mex-5 (Caenorhabditis elegans, UniProt Q9XUB2).
T4 sequence (Q9XUB2 whole entry): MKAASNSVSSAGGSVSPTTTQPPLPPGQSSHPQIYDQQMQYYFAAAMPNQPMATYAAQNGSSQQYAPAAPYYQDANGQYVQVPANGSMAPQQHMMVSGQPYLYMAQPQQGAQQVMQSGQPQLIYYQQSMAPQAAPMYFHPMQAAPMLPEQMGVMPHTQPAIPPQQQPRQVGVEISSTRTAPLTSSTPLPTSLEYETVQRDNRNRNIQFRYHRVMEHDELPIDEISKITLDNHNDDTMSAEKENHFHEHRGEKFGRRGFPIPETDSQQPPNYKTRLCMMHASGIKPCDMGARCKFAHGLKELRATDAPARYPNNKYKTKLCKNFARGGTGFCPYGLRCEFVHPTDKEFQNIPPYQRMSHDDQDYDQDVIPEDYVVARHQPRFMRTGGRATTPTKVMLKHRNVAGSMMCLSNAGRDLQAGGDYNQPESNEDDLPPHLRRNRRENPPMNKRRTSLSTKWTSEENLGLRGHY
Nature of the assay: potency of MEX-5 RNA-binding blockers – biochemical, C. elegans, fluorescence polarization, dose response (AID 1960).

The target of assay [10] is Heat shock protein HSP 90-alpha (Homo sapiens, UniProt P07900). It is filed as functional, organism-based.
The target of assay [11] is FAD-linked sulfhydryl oxidase ALR (Homo sapiens, UniProt P55789). In words: ALR-catalysed DTT oxidation blockers – biochemical, H2O2 detection, luminescence, cherry-pick, dose response (AID 493248).
Chain of FAD-linked sulfhydryl oxidase ALR (P55789 whole entry): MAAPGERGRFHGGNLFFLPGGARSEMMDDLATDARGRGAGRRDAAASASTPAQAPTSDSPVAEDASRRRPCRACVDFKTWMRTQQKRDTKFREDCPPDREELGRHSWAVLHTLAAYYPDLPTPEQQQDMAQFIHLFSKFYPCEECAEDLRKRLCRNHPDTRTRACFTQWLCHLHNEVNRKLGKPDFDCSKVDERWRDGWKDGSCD
Assay [12] deals with Vero. In words: cells. To be noted: Chlorocebus sabaeus. The format is functional.
In assay [13] the target is Paired box protein Pax-8 (Homo sapiens, UniProt Q06710). In words: PAX8 transcriptional activity inhibition in RMG-I – RMG-I cells, luciferase, cherry-pick, dose response (AID 687027).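 Further: luciferase reporter driven by Pax8 target thyroperoxidase promoter measured by SteadyGlo luminescence.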 The format is functional, cell-based.
Chain of Paired box protein Pax-8 (Q06710 whole entry): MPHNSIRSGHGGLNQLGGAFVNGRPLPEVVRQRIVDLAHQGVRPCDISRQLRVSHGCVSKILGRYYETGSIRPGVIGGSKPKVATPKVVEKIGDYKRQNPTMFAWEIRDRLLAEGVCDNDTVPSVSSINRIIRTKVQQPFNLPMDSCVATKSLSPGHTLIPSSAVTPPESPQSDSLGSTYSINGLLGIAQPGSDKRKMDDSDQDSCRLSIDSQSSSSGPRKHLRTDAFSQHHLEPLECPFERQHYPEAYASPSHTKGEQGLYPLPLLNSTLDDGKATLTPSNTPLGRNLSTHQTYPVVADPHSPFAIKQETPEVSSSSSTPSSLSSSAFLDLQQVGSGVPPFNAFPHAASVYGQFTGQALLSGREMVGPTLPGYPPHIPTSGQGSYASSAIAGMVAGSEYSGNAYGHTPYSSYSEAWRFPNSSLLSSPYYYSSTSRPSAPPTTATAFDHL

Active and inactive are the calls of the source. For most assays here, no stated cut-off is given here; in the data, actives have a measured EC50 and inactives only a lower limit. Bounds are passed on as bounds.

In the case of `CCN(C(=O)CN1C(=O)COc2ccc(S(=O)(=O)N3CCCCCC3)cc21)c1cccc(C)c1`, in [1], the EC50 was 6.41 µM (active).

Consider `CC(C)(O)CCCC(C)(O)c1ccc(C(=O)O)cc1O` (configuration not stated), for which the IC50 in assay [2] is 9.75 µM (active).

For `CN(C)c1ccc(N/C=C/C(=O)c2ccc(F)cc2)cc1`, the EC50 in assay [3] was 0.816 µM (active); in [4] it was 1.5 µM (active); in assay [5], 2.32 µM (active); in assay [6] it was > 30 µM (not active).

Turning to `CN(C)c1ccc(N/C=C/C(=O)c2ccccc2)cc1`, the IC50 in assay [7] is 5.19 µM (active). The EC50 is 0.654 µM (active) in assay [3] and 0.93 µM (active) in assay [4].

For `Cc1c(N/C=C2\C(=O)NC(=O)N(Cc3ccccc3)C2=O)c(=O)n(-c2ccccc2)n1C`, the EC50 in assay [8] and in assay [9] was > 300 µM (not active) each time.

`Oc1ccccc1-c1nc(NC2CCCC2)c2ccccc2n1`: in assay [10], the AC50 is 4.23 µM (active).

In the case of `NC(=O)c1c(NC(=O)c2c(F)cccc2F)sc2c1CCN(Cc1ccccc1)C2`, the EC50 was 57.1 µM (active) in [8] and > 300 µM (not active) in assay [9].

Turning to `CCCc1ccc(C(=O)NNC(=O)c2ccc(Cl)cc2)cc1`, in [2], the concentration for half-maximal inhibition (IC50) is 9.67 µM (active).

In the case of `CC(=O)Nc1ccc(S(=O)(=O)N(C)CC(=O)OCC(=O)N2CCN(C(=O)c3ccco3)CC2)cc1`, the IC50 in assay [2] is 9.38 µM (active).

On to `CC1CCN(C2CC(=O)N(c3ccc(Br)cc3Br)C2=O)CC1` (configuration not stated), for which the AC50 in assay [10] was < 0.195 µM (active).

As for `COc1cc(-c2csc(C)n2)ccc1O`, the IC50 in assay [7] was 4.9 µM (active). Moreover, the AC50 in assay [11] is 13.9 µM (active).

`COc1cc(/C=C2\SC(NS(=O)(=O)c3ccc(C)cc3)=NC2=O)c([N+](=O)[O-])cc1OC`: the IC50 in assay [7] is 41.3 µM (active).

As to `Cc1cccc(CCNC(=O)c2cc(S(=O)(=O)N3CCCC3)cn2C)c1`, the EC50 in assay [3] and in assay [4] was > 112 µM (not active) throughout.

`O=C(COc1ccc2oc(-c3ccccc3)cc(=O)c2c1)NCc1ccco1`: the IC50 in assay [2] was 9.63 µM (active).

In the case of `Cc1cc(NC(=O)CSCC(=O)Nc2ccccc2N2CCCCC2)no1`, the EC50 in assay [3] and in assay [4] was > 112 µM (not active) each time.

On to `COc1ccccc1NC(=O)c1nn(-c2ccc(Cl)cc2)ccc1=O`, for which the IC50 in assay [2] is 9.88 µM (active).

As for `O=C(CCN1C(=O)/C(=C/c2cccs2)SC1=S)NC1=NCCS1`, the AC50 in assay [10] was 5.03 µM (active).

Regarding `CN(C)c1ccc(NS(=O)(=O)c2cc3c4c(c2)CC(=O)N4CCC3)cc1`, the IC50 in [7] was 69.8 µM (active).

Regarding `COc1cccc(-c2ccc(NC(=O)C3CCCN(Cc4cnn(C(C)C)c4)C3)cc2)c1` (configuration not stated), the CC50 in assay [12] was > 25 µM (active).

`CC(=O)c1c(C(C)=O)c(C)n(-c2ccc(C(=O)O)cc2)c1C`: the EC50 in [8] and in assay [9] was > 300 µM (not active) each time.

In the case of `Cc1cc(C(F)(F)F)c2c(N)c(C(=O)Nc3cc(C)on3)sc2n1`, the figures for the EC50 in assay [8] and in [9] were > 300 µM (inconclusive) and 39.2 µM (active), respectively.

On to `COc1ccc(NCC(O)Cn2cnc3c2c(=O)n(C)c(=O)n3C)cc1` (configuration not stated), for which the half-inhibitory concentration (IC50) in assay [7] is 17.7 µM (active).

Turning to `COc1ccc(-c2nc(C[S+]([O-])CC(=O)NCc3ccco3)c(C)o2)cc1` (configuration not stated), the EC50 is > 112 µM (not active) in [3] and 27.9 µM (active) in assay [4].

Regarding `Cc1ccc2c(c1)COc1c3ccc(C(=O)N4CCOCC4)cc3nn1-2`, the EC50 was 29.6 µM (active) in assay [3] and 20.9 µM (active) in assay [4].

On to `CN(O)C(=S)c1ccccc1`, for which the concentration at half-maximal activity (AC50) in assay [10] is 0.521 µM (active).

Take `O=C(NCCOC(=O)C1COc2ccccc2O1)c1cccnc1` (configuration not stated): in [1], the EC50 is > 53 µM (inactive).

Consider `C[N+]1(C2CCC3CCCC2C3O)CCCC1` (configuration not stated), for which the IC50 in assay [2] was 6.98 µM (active).

Turning to `CCn1c(=O)c(NC(=O)c2ccccc2)c2n(c1=S)CCCCC2`, the IC50 in assay [2] was 8.47 µM (active).

With `Cc1ccc(-c2cc3nc(-c4ccccc4)cc(NCCCO)n3n2)cc1`, the CC50 in assay [12] was > 25 µM (active).

As for `C#CCN(C[C@H]1[C@H](OC(=O)Nc2c(C)noc2C)[C@H](OC(=O)Nc2c(C)noc2C)C[C@@H](C(=O)OC)[C@H]1C(=O)OC)S(=O)(=O)c1ccc(C)cc1`, the AC50 in [13] is 31.9 µM (active).

On to `C[C@H]1CCCCO[C@@H](CN(C)C)[C@@H](C)CN([C@@H](C)CO)C(=O)c2cc(NC(=O)Nc3ccc(C(F)(F)F)cc3)ccc2O1`, for which, in assay [13], the AC50 is 22.1 µM (active).

Consider `C[C@@H]1CCCCO[C@H](CN(C)C(=O)Nc2ccc(F)cc2)[C@@H](C)CN([C@@H](C)CO)C(=O)c2cc(NC(=O)Nc3ccc(C(F)(F)F)cc3)ccc2O1`, for which, in [13], the AC50 is 2.58 µM (active).

Consider `C[C@@H]1CCCCO[C@H](CN(C)Cc2ccc(C(F)(F)F)cc2)[C@H](C)CN([C@H](C)CO)C(=O)c2cc(NS(=O)(=O)c3ccc(F)cc3)ccc2O1`, for which the AC50 in assay [13] was 6.71 µM (active).

In the case of `COc1ccc(OC)c(/N=C/c2c(O)oc3ccccc3c2=O)c1`, the EC50 in assay [8] and in [9] was > 300 µM (inconclusive) each time.

For the molecule `COc1ccc(C2CC(=O)C(/C=N/CCCO)=C(O)C2)cc1` (configuration not stated), the EC50 in assay [8] was 34.8 µM (active); in assay [9], 37.9 µM (active).

Regarding `CC(=O)Oc1cc(O)c2c(=O)c(OC(C)=O)c(-c3ccc(OC(C)=O)c(OC(C)=O)c3)oc2c1`, the IC50 in assay [7] was 14.4 µM (active).

As a reminder, the IC50 is the concentration that inhibits the measured activity by half. As usually defined, the AC50 is the midpoint of the concentration-response curve, whichever way the signal moves. One may read the CC50 as the concentration at which the toxic effect on the cells reaches its halfway point.
